The source of these data is paper PMC5979539 (International Journal of Molecular Sciences, 2018).

In one test the target is T1, PDC-109 (Bos taurus, UniProt P02784).
T1 construct: PDC-109, purified from bull seminal plasma, was kindly donated by J.J. Calvete; tissue gift of J.J. Calvete; host or cells: bull seminal plasma
T1 sequence (P02784 26-134): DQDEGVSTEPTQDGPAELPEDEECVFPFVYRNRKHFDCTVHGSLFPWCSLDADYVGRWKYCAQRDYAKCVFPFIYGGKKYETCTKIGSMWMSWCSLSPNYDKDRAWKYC
Put plainly: SPR binding profile and kinetics of PDC-109 on immobilized neo-glycoprobes. Details: species or system bovine. Particulars: for binding to PDC-109 in words: immobilized probe, PDC-109 flown over; for derived association (KA) constant / kd / ka: immobilized glycoprobe, PDC-109 6.25 to 100 μM, HBS-P pH 7.4, 25 °C, 1:1 Langmuir model; for kd / ka: 3 to 6 repeat experiments; for ka: 30 μL/min, CV exceeding 50% in particular cases. An excerpt:
While the lipid selectivity and kinetics of PDC-109 has been characterized in considerable detail, its interaction with carbohydrate epitopes remains largely uncharted, despite its potential role in sperm reservoir formation in the female genital tract. We have therefore performed SPR experiments with PDC-109 and the most relevant mammalian glycotopes, particularly those containing Fuc epitopes. Once SPR sensor chips were functionalized with the different synthetic glycoprobes and evaluated with specific lectins (Section 2.1.2) they were used to characterize both qualitatively and quantitatively the interaction of PDC-109. For kinetic analysis, several concentrations in the 6.25 to 100 μM range were analyzed and a 1:1 Langmuir binding model was chosen for sensorgram fitting.
Data dispersion was attributable to the unusual sensorgrams observed, reflecting a complex binding event, particularly in the association phase of PDC-109. […] In a conventional, straightforward binding event, the response—i.e., the signal rise over time, reflecting protein binding to the sensor surface—reaches a constant value once equilibrium is established, and remains so until the protein solution passed over the sensor chip is replaced with buffer, giving way to the spontaneous dissociation process and subsequent surface regeneration.
Binding experiments were performed at 25 °C and 30 μL/min flow rate. […] Sensor surface was regenerated with a 60 μL-injection of specific carbohydrate (10 mM lac, 500 mM αMe-Man, 0.5 M αMe-Fuc, and 10 mM Sia) followed by a 60 μL-injection of NaCl 1 M.
On the technique in general: In SPR one partner is held on a chip, and binding of the other changes the refractive index at the surface.

Another test addresses Con A (Canavalia ensiformis, UniProt P02866). Particulars: for ka1: SPR BIAcore 3000, glycoprobe immobilized on CM5 chip, HBS-P pH 7.4 + CaCl2 5 mM, MnCl2 1 mM; for ka1 / kd1 / ka2 / kd2: Con A 2.5-80 nM, bivalent model; for ka1 / kd1: first binding event; for KA1 / kd1 / ka2 / kd2: SPR; for KA1: affinity constant of first event, KA1 = ka1/kd1; for kd1 / ka2 / kd2: immobilized glycoprobe; for ka2 / kd2: second binding event. Here is the method:
Subsequently, glycoprobes displaying mannobioses only differing in their glycosidic linkage (Man-α1,2-Man, Man-α1,3-Man and Man-α1,6-Man) were immobilized on a sensor chip and their interaction with concanavalin A (Con A) was studied. Con A is a relatively complex lectin, organized as a β-barrel-like tetramer at pH > 7, each dimer subunit (D2 symmetry) with two CRDs situated on opposing faces of the protein. Sensorgrams of different Con A concentrations were recorded and kinetic constants determined by simultaneously fitting the experimental curves to a bivalent kinetic model (Figure 1). This model allows the first and second binding events to be separately described by two sets of rate constants (Table 2).
All SPR experiments were performed in a BIAcore 3000 instrument (GE Healthcare, Uppsala, Sweden) using carboxymethyl-functionalized CM5 or C1 sensor chips and HBS-P (0.01 M HEPES pH 7.4; 0.15 M NaCl; 0.005% v/v surfactant P20) as running buffer, supplemented when necessary with CaCl2 (5 mM) and MnCl2 (1 mM) or other competitive reagents/adjuvants such as bovine serum albumin (BSA), carboxymethyldextran (CMD) or polivinylpirrolidone (PVP). SPR sensorgram analysis and curve fitting were done with the BIAevaluation 4.1.1 sofware package (GE Healthcare, Uppsala, Sweden). In all experiments, specific binding responses were obtained by subtracting from each channel the reference channel response. Moreover, in most cases a double referencing was applied (i.e., reference Fc1 channel plus an internal reference standard, namely buffer injection subtraction).
For all immobilizations, the carboxyl functionalities of the CM5 (or C1) sensor chip surfaces were activated by injecting a mixture of 0.05 M NHS and 0.2 M EDC (1:1 v/v; 50 µL) at 5 µL/min. Then, glycopeptide solutions were passed at 1–2 mg/mL in 10 mM NaOAc for approximately 12 min over the activated surface. For immobilization, pH 4 or pH 6 conditions were used, as required. In the specific case of PDC-109, protein solution was passed at 0.05 µg/µL in 10 mM NaOAc pH 4 over the activated surface. Afterwards, unreacted groups on all chip surfaces were blocked with ethanolamine-HCl (1 M; pH 8.5; 60 µL) or H2O (60 µL). The difference, in resonance units (RU), between readings after surface activation and final response was converted into amount of immobilized glycopeptide (0.981 RU~1 pg/mm^2 for glycopeptides, 1 RU = 1 pg/mm^2 for proteins; see legend Table 6).
All kinetic measurements were carried out by running a manually programmed sequence of binding experiments using several protein range concentrations and two flow rates. Regeneration of the sensor surface was accomplished in a specific-manner by injecting the complementary carbohydrate (10 mM lac, 100–500 mM αMe-Man, 0.5 M αMe-Fuc or L-Fuc, 0.5 M GlcNAc, 0.5 M Glc, and 10 mM Sia). Alternatively, other procedures such as glycoprotein solutions (e.g., fetuin at 2–5 g/L), low pH-buffers (e.g., 10 mM glycine pH 1.5–2.5), high salt (e.g., 1 M NaCl), high pH or specific chemicals were also used to break the interaction.
For the evaluation of the sensor chips, binding experiments and kinetic studies were carried out with the various glycoprobes and specific well-characterized lectins (ECA, Con A, LTA, UEA-I, MAA, and SNA). Several concentrations of each lectin were prepared by serial 2/3-fold dilutions of the most concentrated sample in running buffer supplemented with CaCl2 (5 mM) and MnCl2 (1 mM). Thus, concentrations varied from 66 nM to 2.5 µM for ECA; from 2.5 to 80 nM for Con A; from 31.25 nM to 1 µM for LTA and UEA-I; from 250 nM to 1.9 µM for MAA and from 74 to 563 nM for SNA. Analyses were performed at 20 µL/min and kinetic studies at 10 and 40 μL/min. After lectin injection, the sample solution was replaced by running buffer and the dissociation phase was monitored for 3–6 min.

The target of the next test is SNA (Sambucus nigra, UniProt Q41358).
Chain of SNA (Q41358 309-570 limits assumed): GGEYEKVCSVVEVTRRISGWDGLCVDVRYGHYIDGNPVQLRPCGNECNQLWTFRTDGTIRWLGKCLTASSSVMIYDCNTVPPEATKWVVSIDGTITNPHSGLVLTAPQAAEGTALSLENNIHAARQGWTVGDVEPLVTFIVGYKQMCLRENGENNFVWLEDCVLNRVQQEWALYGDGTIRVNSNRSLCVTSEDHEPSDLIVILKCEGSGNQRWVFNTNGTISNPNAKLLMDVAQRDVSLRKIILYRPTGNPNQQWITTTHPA
Chain of SNA (Q41358 29-290 partner limits assumed): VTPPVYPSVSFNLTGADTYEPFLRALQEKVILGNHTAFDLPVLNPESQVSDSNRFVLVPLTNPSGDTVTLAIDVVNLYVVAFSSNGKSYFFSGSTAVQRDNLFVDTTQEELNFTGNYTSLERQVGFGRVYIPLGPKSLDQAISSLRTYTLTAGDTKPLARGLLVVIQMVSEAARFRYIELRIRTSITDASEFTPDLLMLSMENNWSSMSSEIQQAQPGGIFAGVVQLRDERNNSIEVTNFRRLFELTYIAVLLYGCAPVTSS

“N[Me]-O-Aoa-GFKKG-amide [peptide module for oxime ligation]”: on PDC-109, the “binding to PDC-109 in words” value is given as “undesirable, non-specific binding”.
For the substance “Man-α1,3-Man-Aoa(m)-GFKKG [neo-glycoprobe: Man-α1,3-Man oxime-ligated to the peptide module N[Me]-O-Aoa-GFKKG]”, on Con A, the ka1 came to 22800 M⁻¹ s⁻¹, the KA1 is 345000 M⁻¹, the kd1 worked out at 0.0661 s⁻¹ and the ka2 was 3.78 × 10^−3 RU^−1 s^−1. In addition, the kd2 at Con A was 0.0629 s⁻¹. Also, at PDC-109, the “derived association (KA) constant” value was determined as 87700 M⁻¹, the kd was determined as 0.0044 s⁻¹ and the ka amounted to 386 M⁻¹ s⁻¹.
For the substance “Man-α1,6-Man-Aoa(m)-GFKKG [neo-glycoprobe: Man-α1,6-Man oxime-ligated to the peptide module N[Me]-O-Aoa-GFKKG]”, at Con A, the ka1 was determined as 8910 M⁻¹ s⁻¹, the KA1 was found to be 308000 M⁻¹, the kd1 was found to be 0.0289 s⁻¹ and the ka2 was 7.15 × 10^−4 RU^−1 s^−1. Moreover, the kd2 at Con A is 0.019 s⁻¹. At PDC-109, the “derived association (KA) constant” value came to 23800 M⁻¹, the kd came out at 0.0173 s⁻¹ and the ka was 410 M⁻¹ s⁻¹.
As to “Neu5Ac-α2,3/6-Gal-β1,4-Glc-N[Me]-O-Aoa-GFKKG-amide [Neu5Ac-α2,3/6-Gal-β1,4-Glc-Aoa(m)-GFKKG, neo-glycoprobe: Neu5Ac-α2,3/6-Gal-β1,4-Glc oxime-ligated to the peptide module N[Me]-O-Aoa-GFKKG]”, on PDC-109, the “derived association (KA) constant” value amounted to 27700 M⁻¹, the kd was 0.0081 s⁻¹ and the ka is 2120 M⁻¹ s⁻¹.
Take “Neu5Ac-α2,6-Gal-β1,4-GlcNAc-N[Me]-O-Aoa-GFKKG-amide [Neu5Ac-α2,6-Gal-β1,4-GlcNAc-Aoa(m)-GFKKG, neo-glycoprobe: Neu5Ac-α2,6-Gal-β1,4-GlcNAc oxime-ligated to the peptide module N[Me]-O-Aoa-GFKKG]”: on SNA, the KA is 6.27 × 10^6 M^−^1 and the “carbohydrate specificity of SNA in words” value was “marked preference”. Also, on SNA (pH 7.4), the ka is given as 1.02 × 10^4 M^−^1 s^−^1. Besides, on PDC-109, the “derived association (KA) constant” value came to 166000 M⁻¹, the kd came to 0.00253 s⁻¹, the ka came out at 1880 M⁻¹ s⁻¹ and the “binding to PDC-109 in words” value is “favored interaction”.
For the substance “Man-α1,2-Man-Aoa(m)-GFKKG [neo-glycoprobe: Man-α1,2-Man oxime-ligated to the peptide module N[Me]-O-Aoa-GFKKG]”, on Con A, the ka1 stood at 16800 M⁻¹ s⁻¹, the KA1 came to 126000 M⁻¹, the kd1 is 0.133 s⁻¹ and the ka2 is on record as 2.88 × 10^−2 RU^−1 s^−1. At Con A, this substance returned a kd2 of 0.0706 s⁻¹. Moreover, at PDC-109, the “derived association (KA) constant” value was 78700 M⁻¹, the kd worked out at 0.013 s⁻¹ and the ka turned out to be 1020 M⁻¹ s⁻¹.
Turning to “Gal-β1,6-GlcNAc-Aoa(m)-GFKKG [neo-glycoprobe: Gal-β1,6-GlcNAc oxime-ligated to the peptide module N[Me]-O-Aoa-GFKKG]”, at PDC-109, the “derived association (KA) constant” value stood at 22700 M⁻¹, the kd worked out at 0.0208 s⁻¹ and the ka is 472 M⁻¹ s⁻¹.
For “Fuc-α1,3-GlcNAc-Aoa(m)-GFKKG [neo-glycoprobe: Fuc-α1,3-GlcNAc oxime-ligated to the peptide module N[Me]-O-Aoa-GFKKG]”, in that order: 237000 M⁻¹, 0.00165 s⁻¹ and 763 M⁻¹ s⁻¹.
For “Gal-β1,4-GlcNAc-Aoa(m)-GFKKG [neo-glycoprobe: Gal-β1,4-GlcNAc oxime-ligated to the peptide module N[Me]-O-Aoa-GFKKG]”, in that order: 10000 M⁻¹, 0.0086 s⁻¹ and 86.2 M⁻¹ s⁻¹.
As to “Fuc-α1,4-GlcNAc-Aoa(m)-GFKKG [neo-glycoprobe: Fuc-α1,4-GlcNAc oxime-ligated to the peptide module N[Me]-O-Aoa-GFKKG]”, at PDC-109, the kd turned out to be 8.83e-05 s⁻¹, the ka was 2910 M⁻¹ s⁻¹ and the “binding to PDC-109 in words” value is reported as “highest binding affinity”.
Regarding “Gal-β1,3-GlcNAc-Aoa(m)-GFKKG [neo-glycoprobe: Gal-β1,3-GlcNAc oxime-ligated to the peptide module N[Me]-O-Aoa-GFKKG]”, at PDC-109, the “derived association (KA) constant” value worked out at 17000 M⁻¹, the kd is 0.00756 s⁻¹ and the ka was 128 M⁻¹ s⁻¹.
The corresponding values for “Fuc-α1,6-GlcNAc-Aoa(m)-GFKKG [neo-glycoprobe: Fuc-α1,6-GlcNAc oxime-ligated to the peptide module N[Me]-O-Aoa-GFKKG]” are 73100 M⁻¹, 0.00345 s⁻¹ and 645 M⁻¹ s⁻¹.
